Data taken from PMC8480901 (PLoS ONE, 2021).
“And” between values parts separate entries of the source, which are not always exact repeats. Identical values can stand only once.

Tested on: J774.2 mouse macrophages
Assay: LPS-induced cytokine and chemokine levels in J774.2 mouse macrophage cell supernatant (ELISA)
Format: cell-based
Conditions: LPS; for CCl2, % reduction / CCl2, Mean / GM-CSF % reduction / GM-CSF Mean / IL-1β % reduction / IL-1β Mean / IL-6 % reduction / IL-6 Mean / TNF-α % reduction / TNF-α Mean / CCl2 / CXCL1 / GM-CSF / IL-1β / IL-6 / TNF-α: J774.2 supernatant; for CCl2 / CXCL1 / GM-CSF / IL-1β / IL-6 / TNF-α / CXCL2 / MMP9: individual replicate; for CXCL2 / MMP9: J774.2 cells

## CC[C@H]1OC(=O)[C@H](C)[C@@H](O[C@H]2C[C@@](C)(OC)[C@@H](O)[C@H](C)O2)[C@H](C)[C@@H](O[C@@H]2O[C@H](C)C[C@H](N(C)C)[C@H]2O)[C@](C)(O)C[C@@H](C)CN(C)[C@H](C)[C@@H](O)[C@]1(C)O [Azithromycin]
1 µM
  CCl2, % reduction: 17%
  CCl2, Mean: 29990 pg/mL
  GM-CSF % reduction: 67%
  GM-CSF Mean: 467 pg/mL
  IL-1β % reduction: 4.32%
  IL-1β Mean: 183 pg/mL
  IL-6 % reduction: 10%
  IL-6 Mean: 69772 pg/mL
  TNF-α % reduction: -11%
  TNF-α Mean: 1515 pg/mL
  CCl2: 27895.3 pg/mL and 32084.6 pg/mL
  CXCL1: 29.3 pg/mL and 31.2 pg/mL
  GM-CSF: 431.5 pg/mL and 502.0 pg/mL
  IL-1β: 188.28 pg/mL and 176.943 pg/mL
  IL-6: 65142 pg/mL and 74401 pg/mL
  TNF-α: 1479.7 pg/mL and 1551.1 pg/mL
3 µM
  CCl2, % reduction: 4%
  CCl2, Mean: 34644 pg/mL
  GM-CSF % reduction: 57%
  GM-CSF Mean: 606 pg/mL
  IL-1β % reduction: -7%
  IL-1β Mean: 204 pg/mL
  IL-6 % reduction: 7%
  IL-6 Mean: 71996 pg/mL
  TNF-α % reduction: -31%
  TNF-α Mean: 1780 pg/mL
  CCl2: 38396.7 pg/mL and 30890.3 pg/mL
  CXCL1: 37.9 pg/mL and 28.5 pg/mL
  GM-CSF: 728.6 pg/mL and 484.1 pg/mL
  IL-1β: 204.824 pg/mL and 203.959 pg/mL
  IL-6: 78966 pg/mL and 65026 pg/mL
  TNF-α: 1995.5 pg/mL and 1564.5 pg/mL
10 µM
  CCl2, % reduction: 9%
  CCl2, Mean: 32971 pg/mL
  GM-CSF % reduction: 52%
  GM-CSF Mean: 674 pg/mL
  IL-1β % reduction: 1.15%
  IL-1β Mean: 189 pg/mL
  IL-6 % reduction: 15%
  IL-6 Mean: 65894 pg/mL
  TNF-α % reduction: -25%
  TNF-α Mean: 1709 pg/mL
  CCl2: 34921.6 pg/mL and 31021.1 pg/mL
  CXCL1: 42.9 pg/mL and 34.6 pg/mL
  GM-CSF: 752.0 pg/mL and 595.8 pg/mL
  IL-1β: 185.693 pg/mL and 191.532 pg/mL
  IL-6: 62169 pg/mL and 69619 pg/mL
  TNF-α: 1793.0 pg/mL and 1624.6 pg/mL
30 µM
  CCl2, % reduction: -14%
  CCl2, Mean: 40819 pg/mL
  GM-CSF % reduction: 66%
  GM-CSF Mean: 483 pg/mL
  IL-1β % reduction: 28%
  IL-1β Mean: 138 pg/mL
  IL-6 % reduction: 43%
  IL-6 Mean: 44169 pg/mL
  TNF-α % reduction: -15%
  TNF-α Mean: 1566 pg/mL
  CCl2: 40980.3 pg/mL and 40657.2 pg/mL
  CXCL1: 68.6 pg/mL and 51.5 pg/mL
  GM-CSF: 510.8 pg/mL and 455.1 pg/mL
  IL-1β: 129.379 pg/mL and 146.376 pg/mL
  IL-6: 40788 pg/mL and 47550 pg/mL
  TNF-α: 1637.1 pg/mL and 1494.0 pg/mL
100 µM
  CCl2, % reduction: 12%
  CCl2, Mean: 31879 pg/mL
  GM-CSF % reduction: 76%
  GM-CSF Mean: 343 pg/mL
  IL-1β % reduction: 36%
  IL-1β Mean: 122 pg/mL
  IL-6 % reduction: 69%
  IL-6 Mean: 24231 pg/mL
  TNF-α % reduction: -21%
  TNF-α Mean: 1656 pg/mL
  CCl2: 33824.3 pg/mL and 29933.1 pg/mL
  CXCL1: 66.2 pg/mL and 50.6 pg/mL
  GM-CSF: 399.7 pg/mL and 287.0 pg/mL
  IL-1β: 120.112 pg/mL and 124.217 pg/mL
  IL-6: 25573 pg/mL and 22888 pg/mL
  TNF-α: 1818.4 pg/mL and 1493.5 pg/mL
Compound 0.03 µM
  CXCL2: 14544.8 pg/mL and 27111.4 pg/mL
  MMP9: 1137.13 pg/mL and 1348.53 pg/mL
Compound 0.1 µM
  CXCL2: 14262.2 pg/mL and 26368.8 pg/mL
  MMP9: 973.296 pg/mL and 1170.61 pg/mL
Compound 0.3 µM
  CXCL2: 19194.7 pg/mL and 27003.7 pg/mL
  MMP9: 981.336 pg/mL and 1072.64 pg/mL
Compound 1 µM
  CXCL2: 28271.6 pg/mL and 28293.6 pg/mL
  MMP9: 1115.62 pg/mL and 1010.37 pg/mL
Compound 3 µM
  CXCL2: 17053.3 pg/mL and 14683.3 pg/mL
  MMP9: 1120.5 pg/mL
Compound 10 µM
  CXCL2: 20008.2 pg/mL and 16019.2 pg/mL
  MMP9: 846.885 pg/mL and 873.775 pg/mL
Compound 30 µM
  CXCL2: 23084.4 pg/mL and 24875.0 pg/mL
  MMP9: 575.954 pg/mL and 501.629 pg/mL
Compound 100 µM
  CXCL2: 19137.4 pg/mL and 23402.0 pg/mL
  MMP9: 340.616 pg/mL and 323.365 pg/mL
